Laboratory results taken from patent US12012408B2, “Purine compounds and method for the treatment of cancer” (THE ROYAL INSTITUTION FOR THE ADVANCEMENT OF …, priority 2018, dated 2024).

System: 4T1 cells (triple-negative breast carcinoma)
Experiment: In vivo orthotopic allograft model of breast cancer
Parameters: species or system BALB/c mice
Experimental: All experiments were carried out according to protocol number 4101 of the McGill University Animal Care Committee. Mouse mammary carcinoma 4T1 cells (1×10^6 cells/each mouse) were transplanted into the mammary fat pad of BALB/c mice. […] Tumor size was measured using a caliper, and tumor volume was calculated as […] (length×width2). Mice were sacrificed 40 days after transplanting. Tumor tissues were isolated and fixed in 10% formalin. The lungs were fixed in 10% Bouin's fixative and lung metastatic nodules on the surface were counted using a stereomicroscope (Optimax; Leica).

c1nc2nc(Nc3ccc(N4CC[Se]CC4)cc3)nc(N[C@H]3CC[Se]C3)c2[nH]1 [SLLN-15]
tumor volumes (30 mg/kg given PO, compared to vehicle, FIG. 1D): reduced
tumor weights (30 mg/kg given PO, compared to vehicle, FIG. 1E): reduced
tumor allograft growth rate (30 mg/kg given PO, compared to vehicle, FIGS. 1D and E): grew at a slower rate
number of lung metastases (compared with vehicle-treated animals, FIG. 1F): significant inhibition of the number of lung metastases
